Measured values as given in patent publication US20050250752A1, “Cembranoids with chemopreventive activity” (priority 2002, published 2005).

Key:
Raji cells = assay: Viability of treated Raji cells (Trypan Blue staining); assay type: cell-based
Method: (§1) The inhibition of EBV-EA activation was assayed using Raji cells (virus non-producer type). The indicator cells (Raji, 1×10^6/ml) were incubated at 37° C. for 48 h in 1 ml of medium containing n-butyric acid (4 mmol), TPA(12-O-tetradecanoylphorbol 13-acetate)(32 pmol=20 ng in 2 μl DMSO) as inducer and various amounts of test compounds in 5 μl DMSO. Smears were made from the cell suspension, and the activated cells, which were stained by EBV-EA positive serum from nasopharygeal carcinoma patients were detected by an indirect immunofluorescence technique. For each compound, assays were performed in triplicate. The average EBV-EA induction of the test compounds was expressed as a relative ratio to the control experiment (100%), which was carried out only with n-butyric acid plus TPA. The viability of treated Raji cells was assayed by the Trypan Blue staining method.

[1] = tested on: Epstein-Barr virus early antigen (EBV-EA) of Raji cells induced by tumor promoter (TPA); assay: Inhibition of EBV-EA activation induced by TPA in Raji cells; assay type: cell-based; conditions: TPA 32 pmol, Raji cells, 48 h
Method: as §1

[2] = tested on: papillomas (mouse skin carcinogenesis induced by DMBA/TPA); assay: Two-stage mouse skin carcinogenesis model induced by DMBA/TPA; assay type: in vivo, mouse (female ICR); conditions: topical 85 nm 1 hour before TPA, ICR mice
Method: In the two-stage mouse skin carcinogenesis model induced by DMBA/TPA, the animals (specific pathogen-free female ICR, 6 weeks old) were divided into 5 groups, 15 mice each. The back of each mouse was shaved with surgical clippers, and the mice were topically treated with DMBA (100 μg, 390 nmol) in acetone (0.1 ml) as an initiation treatment. For the positive control group, 1 week after initiation with DMBA, mice were promoted by the application with TPA (1 μg, 1.7 nmol) in acetone (0.1 ml) twice a week. The other four groups received a topical application of each of the sarcophine semi-synthetic derivatives (85 nm) 1 hour before application of the tumor promoter. The incidence of papillomas was observed weekly for 20 weeks. The percentage of mice bearing papillomas and the average number of papillomas per mouse were recorded.

[3] = x 1000 mol ratio/TPA (32 nmol/mL)

Compound: 13S-hydroxysarcophine [Compound 4]
- viability percentage of Raji cells (indicator cells) (Raji cells; x 10 mol ratio/TPA): > 80%
- viability percentage of Raji cells (indicator cells) (Raji cells; x 100 mol ratio/TPA): > 80%
- viability percentage of Raji cells (indicator cells) (Raji cells; x 500 mol ratio/TPA): > 80%
- viability percentage of Raji cells (indicator cells) (Raji cells; [3]): 60%
- EBV-EA induction, percentage relative to the positive control value (100%) ([1]; x 10 mol ratio/TPA): 100%
- EBV-EA induction, percentage relative to the positive control value (100%) ([1]; x 100 mol ratio/TPA): 81.3%
- EBV-EA induction, percentage relative to the positive control value (100%) ([1]; x 500 mol ratio/TPA): 62.8%
- EBV-EA induction, percentage relative to the positive control value (100%) [1, 3]: 14.2%

Compound: CC1=C2CC/C(C)=C/CC[C@]3(C)O[C@H]3CC/C(C)=C/[C@@H]2OC1=O [Compound 3, Sarcophine, reference compound]
- viability percentage of Raji cells (indicator cells) (Raji cells; human, 48 h, 0.32 nmol/mL): > 80%
- viability percentage of Raji cells (indicator cells) (Raji cells; human, 48 h, 3.2 nmol/mL): > 80%
- viability percentage of Raji cells (indicator cells) (Raji cells; x 500 mol ratio/TPA): > 80%
- viability percentage of Raji cells (indicator cells) (Raji cells; [3]): 60%
- EBV-EA induction, percentage relative to the positive control value (100%) ([1]; x 10 mol ratio/TPA): 100%
- EBV-EA induction, percentage relative to the positive control value (100%) ([1]; x 100 mol ratio/TPA): 84.0%
- EBV-EA induction, percentage relative to the positive control value (100%) ([1]; x 500 mol ratio/TPA): 67.5%
- EBV-EA induction, percentage relative to the positive control value (100%) [1, 3]: 19.6%

Compound: CC1=C2CC/C(C=O)=C/CC[C@]3(C)O[C@H]3CC/C(C)=C/[C@@H]2OC1=O [Compound 6, sarcophine-20-carboxyaldehyde]
- viability percentage of Raji cells (indicator cells) (Raji cells; x 10 mol ratio/TPA): > 80%
- viability percentage of Raji cells (indicator cells) (Raji cells; x 100 mol ratio/TPA): > 80%
- viability percentage of Raji cells (indicator cells) (Raji cells; x 500 mol ratio/TPA): > 80%
- viability percentage of Raji cells (indicator cells) (Raji cells; [3]): 60%
- EBV-EA induction, percentage relative to the positive control value (100%) ([1]; x 10 mol ratio/TPA): 96.0%
- EBV-EA induction, percentage relative to the positive control value (100%) ([1]; x 100 mol ratio/TPA): 78.2%
- EBV-EA induction, percentage relative to the positive control value (100%) ([1]; x 500 mol ratio/TPA): 60.8%
- EBV-EA induction, percentage relative to the positive control value (100%) [1, 3]: 12.7%

Compound: C/C(CO)=C1\CC/C(C)=C/CCC2(C)OC2CC/C(C)=C/C1O (stereo not drawn) [Compound 10]
- viability percentage of Raji cells (indicator cells) (Raji cells; x 10 mol ratio/TPA): > 80%
- viability percentage of Raji cells (indicator cells) (Raji cells; x 100 mol ratio/TPA): > 80%
- viability percentage of Raji cells (indicator cells) (Raji cells; x 500 mol ratio/TPA): > 80%
- viability percentage of Raji cells (indicator cells) (Raji cells; [3]): 60%
- Papilloma Bearer (%) ([2]; week 1 of promotion): 0.0%
- Papillomas/mouse ([2]; week 1 of promotion): 0.0
- Papilloma Bearer (%) ([2]; week 2 of promotion): 0.0%
- Papillomas/mouse ([2]; week 2 of promotion): 0.0
- Papilloma Bearer (%) ([2]; week 3 of promotion): 0.0%
- Papillomas/mouse ([2]; week 3 of promotion): 0.0
- Papilloma Bearer (%) ([2]; week 4 of promotion): 0.0%
- Papillomas/mouse ([2]; week 4 of promotion): 0.0
- Papilloma Bearer (%) ([2]; week 5 of promotion): 0.0%
- Papillomas/mouse ([2]; week 5 of promotion): 0.0
- Papilloma Bearer (%) ([2]; week 6 of promotion): 0.0%
- Papillomas/mouse ([2]; week 6 of promotion): 0.0
- Papilloma Bearer (%) ([2]; week 7 of promotion): 0.0%
- Papillomas/mouse ([2]; week 7 of promotion): 0.0
- Papilloma Bearer (%) ([2]; week 8 of promotion): 13.3%
- Papillomas/mouse ([2]; week 8 of promotion): 0.5
- Papilloma Bearer (%) ([2]; week 9 of promotion): 13.3%
- Papillomas/mouse ([2]; week 9 of promotion): 0.9
- Papilloma Bearer (%) ([2]; week 10 of promotion): 26.6%
- Papillomas/mouse ([2]; week 10 of promotion): 1.3
- Papilloma Bearer (%) ([2]; week 11 of promotion): 33.3%
- Papillomas/mouse ([2]; week 11 of promotion): 1.8
- Papilloma Bearer (%) ([2]; week 12 of promotion): 40.0%
- Papillomas/mouse ([2]; week 12 of promotion): 2.1
- Papilloma Bearer (%) ([2]; week 13 of promotion): 46.6%
- Papillomas/mouse ([2]; week 13 of promotion): 2.3
- Papilloma Bearer (%) ([2]; week 14 of promotion): 53.3%
- Papillomas/mouse ([2]; week 14 of promotion): 2.5
- Papilloma Bearer (%) ([2]; week 15 of promotion): 60.0%
- Papillomas/mouse ([2]; week 15 of promotion): 2.7
- Papilloma Bearer (%) ([2]; week 16 of promotion): 73.3%
- Papillomas/mouse ([2]; week 16 of promotion): 3.1
- Papilloma Bearer (%) ([2]; week 17 of promotion): 73.3%
- Papillomas/mouse ([2]; week 17 of promotion): 3.6
- Papilloma Bearer (%) ([2]; week 18 of promotion): 80.0%
- Papillomas/mouse ([2]; week 18 of promotion): 4.0
- Papilloma Bearer (%) ([2]; week 19 of promotion): 80.0%
- Papillomas/mouse ([2]; week 19 of promotion): 4.6
- Papilloma Bearer (%) ([2]; week 20 of promotion): 80.0%
- Papillomas/mouse ([2]; week 20 of promotion): 4.8
- EBV-EA induction, percentage relative to the positive control value (100%) ([1]; x 10 mol ratio/TPA): 94.1%
- EBV-EA induction, percentage relative to the positive control value (100%) ([1]; x 100 mol ratio/TPA): 75.5%
- EBV-EA induction, percentage relative to the positive control value (100%) ([1]; x 500 mol ratio/TPA): 57.3%
- EBV-EA induction, percentage relative to the positive control value (100%) [1, 3]: 9.6%
